Test results from PubChem BioAssay (NCI).
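Five concentrations, 48 hours, 96-well plates. TGI: total growth inhibition.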

Assays:
Test in all cases: NCI anticancer screen, dose series, 48 h
MOLT-4 leukemia = system: MOLT-4 leukemia
T-47D breast = system: T-47D breast
A549 NSCLC = system: A549 NSCLC
SNB-75 CNS = system: SNB-75 CNS
OVCAR-8 ovarian = system: OVCAR-8 ovarian
RPMI-8226 leukemia = system: RPMI-8226 leukemia
UO-31 renal = system: UO-31 renal
KM12 colon = system: KM12 colon
DU-145 prostate = system: DU-145 prostate
786-0 renal = system: 786-0 renal
MDA-MB-231 breast = system: MDA-MB-231 breast
NCI-H226 lung = system: NCI-H226 lung
PC-3 prostate = system: PC-3 prostate
HOP-62 NSCLC = system: HOP-62 NSCLC
TK-10 renal = system: TK-10 renal
HCT-116 colon = system: HCT-116 colon
NCI-H23 lung = system: NCI-H23 lung
CCRF-CEM leukemia = system: CCRF-CEM leukemia
ACHN renal = system: ACHN renal
SF-539 CNS = system: SF-539 CNS
HOP-92 NSCLC = system: HOP-92 NSCLC
HCT-15 colon = system: HCT-15 colon
K-562 leukemia = system: K-562 leukemia
MDA-N = system: MDA-N
HS 578T breast = system: HS 578T breast
M14 melanoma = system: M14 melanoma
SW-620 colon = system: SW-620 colon
LOX IMVI melanoma = system: LOX IMVI melanoma
NCI/ADR-RES ovarian = system: NCI/ADR-RES ovarian
SK-OV-3 ovarian = system: SK-OV-3 ovarian
SR leukemia = system: SR leukemia
SF-268 CNS = system: SF-268 CNS
HL-60(TB) leukemia = system: HL-60(TB) leukemia
A498 renal = system: A498 renal
UACC-257 melanoma = system: UACC-257 melanoma
SNB-19 CNS = system: SNB-19 CNS
MDA-MB-435 = system: MDA-MB-435
SK-MEL-5 melanoma = system: SK-MEL-5 melanoma
OVCAR-5 ovarian = system: OVCAR-5 ovarian
COLO 205 colon = system: COLO 205 colon
OVCAR-3 ovarian = system: OVCAR-3 ovarian
HT29 colon = system: HT29 colon
SF-295 CNS = system: SF-295 CNS
SN12C renal = system: SN12C renal
CAKI-1 renal = system: CAKI-1 renal
EKVX NSCLC = system: EKVX NSCLC
UACC-62 melanoma = system: UACC-62 melanoma
RXF 393 renal = system: RXF 393 renal
MALME-3M melanoma = system: MALME-3M melanoma
HCC-2998 colon = system: HCC-2998 colon
U251 CNS = system: U251 CNS
MCF7 breast = system: MCF7 breast
SK-MEL-28 melanoma = system: SK-MEL-28 melanoma
NCI-H460 lung = system: NCI-H460 lung
SK-MEL-2 melanoma = system: SK-MEL-2 melanoma
OVCAR-4 ovarian = system: OVCAR-4 ovarian
IGROV1 ovarian = system: IGROV1 ovarian
NCI-H522 lung = system: NCI-H522 lung

Structure (SMILES): Cc1ccc(Nc2n[nH]c(=S)s2)cc1
- TGI (MOLT-4 leukemia): > 100 µM
- TGI (T-47D breast): > 100 µM
- TGI (A549 NSCLC): > 100 µM
- TGI (SNB-75 CNS): > 100 µM
- TGI (OVCAR-8 ovarian): > 100 µM
- TGI (RPMI-8226 leukemia): > 100 µM
- TGI (UO-31 renal): > 100 µM
- TGI (KM12 colon): > 100 µM
- TGI (DU-145 prostate): > 100 µM
- TGI (786-0 renal): > 100 µM
- TGI (MDA-MB-231 breast): > 100 µM
- TGI (NCI-H226 lung): > 100 µM
- TGI (PC-3 prostate): > 100 µM
- TGI (HOP-62 NSCLC): > 100 µM
- TGI (TK-10 renal): > 100 µM
- TGI (HCT-116 colon): > 100 µM
- TGI (NCI-H23 lung): > 100 µM
- TGI (CCRF-CEM leukemia): > 100 µM
- TGI (ACHN renal): > 100 µM
- TGI (SF-539 CNS): > 100 µM
- TGI (HOP-92 NSCLC): > 100 µM
- TGI (HCT-15 colon): > 100 µM
- TGI (K-562 leukemia): > 100 µM
- TGI (MDA-N): > 100 µM
- TGI (HS 578T breast): > 100 µM
- TGI (M14 melanoma): > 100 µM
- TGI (SW-620 colon): > 100 µM
- TGI (LOX IMVI melanoma): > 100 µM
- TGI (NCI/ADR-RES ovarian): > 100 µM
- TGI (SK-OV-3 ovarian): > 100 µM
- TGI (SR leukemia): > 100 µM
- TGI (SF-268 CNS): > 100 µM
- TGI (HL-60(TB) leukemia): > 100 µM
- TGI (A498 renal): > 100 µM
- TGI (UACC-257 melanoma): > 100 µM
- TGI (SNB-19 CNS): > 100 µM
- TGI (MDA-MB-435): > 100 µM
- TGI (SK-MEL-5 melanoma): > 100 µM
- TGI (OVCAR-5 ovarian): > 100 µM
- TGI (COLO 205 colon): > 100 µM
- TGI (OVCAR-3 ovarian): > 100 µM
- TGI (HT29 colon): > 100 µM
- TGI (SF-295 CNS): > 100 µM
- TGI (SN12C renal): > 100 µM
- TGI (CAKI-1 renal): > 100 µM
- TGI (EKVX NSCLC): > 100 µM
- TGI (UACC-62 melanoma): > 100 µM
- TGI (RXF 393 renal): > 100 µM
- TGI (MALME-3M melanoma): > 100 µM
- TGI (HCC-2998 colon): > 100 µM
- TGI (U251 CNS): > 100 µM
- TGI (MCF7 breast): > 100 µM
- TGI (SK-MEL-28 melanoma): > 100 µM
- TGI (NCI-H460 lung): > 100 µM

Structure (SMILES): O=C1/C(=C/c2ccc(Cl)cc2)N=C(c2ccccc2)N1c1nc2ccccc2s1
- TGI (MOLT-4 leukemia): 57.7 µM
- TGI (T-47D breast): > 100 µM
- TGI (SK-MEL-2 melanoma): 88.2 µM
- TGI (SNB-75 CNS): > 100 µM
- TGI (OVCAR-8 ovarian): > 100 µM
- TGI (RPMI-8226 leukemia): > 100 µM
- TGI (OVCAR-4 ovarian): > 100 µM
- TGI (UO-31 renal): > 100 µM
- TGI (KM12 colon): > 100 µM
- TGI (DU-145 prostate): > 100 µM
- TGI (786-0 renal): > 100 µM
- TGI (MDA-MB-231 breast): > 100 µM
- TGI (NCI-H226 lung): > 100 µM
- TGI (PC-3 prostate): > 100 µM
- TGI (HOP-62 NSCLC): > 100 µM
- TGI (TK-10 renal): > 100 µM
- TGI (HCT-116 colon): > 100 µM
- TGI (IGROV1 ovarian): > 100 µM
- TGI (NCI-H23 lung): > 100 µM
- TGI (CCRF-CEM leukemia): > 100 µM
- TGI (ACHN renal): > 100 µM
- TGI (SF-539 CNS): > 100 µM
- TGI (HOP-92 NSCLC): > 100 µM
- TGI (HCT-15 colon): > 100 µM
- TGI (K-562 leukemia): > 100 µM
- TGI (MDA-N): > 100 µM
- TGI (HS 578T breast): 75.7 µM
- TGI (M14 melanoma): > 100 µM
- TGI (SW-620 colon): > 100 µM
- TGI (LOX IMVI melanoma): > 100 µM
- TGI (NCI/ADR-RES ovarian): > 100 µM
- TGI (SK-OV-3 ovarian): > 100 µM
- TGI (SR leukemia): > 100 µM
- TGI (SF-268 CNS): > 100 µM
- TGI (HL-60(TB) leukemia): 18.4 µM
- TGI (A498 renal): 97.1 µM
- TGI (UACC-257 melanoma): > 100 µM
- TGI (MDA-MB-435): > 100 µM
- TGI (SK-MEL-5 melanoma): > 100 µM
- TGI (OVCAR-5 ovarian): > 100 µM
- TGI (OVCAR-3 ovarian): > 100 µM
- TGI (HT29 colon): > 100 µM
- TGI (SF-295 CNS): > 100 µM
- TGI (CAKI-1 renal): > 100 µM
- TGI (EKVX NSCLC): > 100 µM
- TGI (NCI-H522 lung): 75.1 µM
- TGI (RXF 393 renal): > 100 µM
- TGI (HCC-2998 colon): > 100 µM
- TGI (U251 CNS): > 100 µM
- TGI (MCF7 breast): > 100 µM
- TGI (SK-MEL-28 melanoma): > 100 µM
- TGI (NCI-H460 lung): > 100 µM
